# Test results reported in patent publication US10519193B2, “Steroidal compound, composition containing the same and use thereof” (Shenzhen TargetRx, Inc., priority 2016, dated 2019).
# Tests used:
# Human CYP17 [1] = target: T1, Human CYP17 (Homo sapiens, UniProt P05093); test: CYP17 hydroxylase assay; format: biochemical; parameters: made in house; host or cells: E. coli (membrane preparation); conditions: hCYP17 E. coli membrane, 25 μM pregnenolone, 37° C. 120 minutes; read-out: CYP17 hydroxylase IC50
# T1 sequence (P05093 1-508): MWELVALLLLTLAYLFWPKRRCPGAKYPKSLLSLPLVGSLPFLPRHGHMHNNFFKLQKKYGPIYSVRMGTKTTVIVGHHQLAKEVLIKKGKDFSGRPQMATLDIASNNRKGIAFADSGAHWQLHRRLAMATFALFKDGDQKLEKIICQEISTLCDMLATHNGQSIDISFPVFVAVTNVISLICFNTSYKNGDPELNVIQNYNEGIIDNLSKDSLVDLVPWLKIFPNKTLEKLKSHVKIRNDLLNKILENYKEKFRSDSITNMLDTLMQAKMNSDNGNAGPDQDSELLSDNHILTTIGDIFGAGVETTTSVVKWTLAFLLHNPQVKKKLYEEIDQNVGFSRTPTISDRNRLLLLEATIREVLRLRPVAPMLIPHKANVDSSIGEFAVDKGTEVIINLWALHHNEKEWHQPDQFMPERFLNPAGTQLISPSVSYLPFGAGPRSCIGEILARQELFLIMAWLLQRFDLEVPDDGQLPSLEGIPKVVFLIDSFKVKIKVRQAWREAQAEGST
# Method: E. coli was transformed to express active human CYP17, and a membrane prepared from the transformed E. coli was used as a source of the enzyme. […] The reaction mixture was incubated at 37° C. for 120 minutes and 200 μL of 0.02 N HCl in acetonitrile was added to stop the reaction. The sample was then spun at […] and 200 μL of the supernatant was transferred to a clean tube for determination. The reaction product 17-alpha pregnenolone was measured by LC/MS.
# Human CYP17 [2] = target: T1, Human CYP17; test: CYP17 lyase assay; format: biochemical; parameters: made in house; host or cells: HEK293 cells (microsomes); conditions: CYP17-HEK293 microsomes, 20 minutes at room temperature; read-out: CYP17 lyase IC50
# Method: Human CYP17 was expressed in HEK293 cells and microsome were prepared, which was subsequently used as a source of enzyme for lyase assays. The reaction includes 200 nM [3H]-hydroxy pregnenolone (ARC), 200 nM 17-hydroxy pregnenolone (Sigma), 2 mM NADPH (Calbiochem), and CYP 17-HEK293 microsomes, which were incubated for 20 minutes at room temperature in the presence of DMSO or a test compound. Compounds were dissolved in DMSO and serially diluted. The reaction was stopped by the addition of 0.2N HCl and the product was captured using an anti-mouse YSi SPA Bead (GE) conjugated anti-DHEA monoclonal antibody (Abcam). The signal intensity determined by Packard Top Count was used to calculate the percent inhibition and IC50 values.
# [3] = system: PSA protein secretion, LNcaP cells; test: Inhibition of cellular PSA protein secretion; format: cell-based; conditions: Homo sapiens, 1 nM DHT, 48 hours, ELISA, read-out: Inhibition of PSA proteins, IC50
# Method: Experimental steps: 1. The original culture medium was replaced with culture medium containing 10% Charcoal Stripped FBS, and cells were allowed to starve in culture flasks for 24 hours; 2. Cells were digested and counted, and LNcaP cells were seeded into 96-well plates at 10,000 cells/well and incubated overnight; 3. The DHT and compound were added to the existing medium at a set concentration, the final concentration of DHT was 1 nM, the initial concentration of the compound was 50000 nM, 5-fold dilution was carried out, 8 concentration gradients were obtained, and incubation was carried out for 48 hours; 4. Cell culture supernatants were collected and PSA protein levels were measured according to the ELISA kit instructions. IC50 was calculated using GraphPad Prism based on the inhibition rate at each concentration, and the results were shown in Table 2 below.
# [4] = Metabolic stability evaluation in human liver microsomes; format: in vitro ADME; conditions: human liver microsome
# Method: Experiments in microsomes: Human liver microsomes: 0.5 mg/mL, Xenotech; Coenzyme (NADPH/NADH): 1 mM, Sigma Life Science; Magnesium chloride: 5 mM, 100 mM phosphate buffer (pH 7.4).
# Preparation of stock solution: Powder of the example compound was accurately weighed and dissolved in DMSO to 5 mM.
# Preparation of phosphate buffer (100 mM, pH7.4): A pre-formulated 0.5M potassium dihydrogen phosphate (150 mL) was mixed with 0.5M dibasic potassium phosphate (700 mL). The pH of the mixture was adjusted to 7.4 with 0.5M dibasic potassium phosphate solution. The mixture was diluted 5-fold with ultrapure water before use, and magnesium chloride was added to obtain a phosphate buffer (100 mM) containing 100 mM potassium phosphate, 3.3 mM magnesium chloride, pH 7.4.
# A NADPH regeneration system solution (containing 6.5 mM NADP, 16.5 mM G-6-P, 3 U/mL G-6-P D, 3.3 mM magnesium chloride) was prepared and placed on wet ice prior to use.
# Preparation of stop solution: acetonitrile solution containing 50 ng/mL propranolol hydrochloride and 200 ng/mL tolbutamide (internal standard). 25057.5 μL of phosphate buffer (pH 7.4) was taken into a 50 mL centrifuge tube, to which 812.5 μL human liver microsomes were added, and mixed to obtain a liver microsome dilution solution with a protein concentration of 0.625 mg/mL. 25057.5 μL of phosphate buffer (pH 7.4) was taken into a 50 mL centrifuge tube, to which 812.5 μL SD rat liver microsomes were added, and mixed to obtain a liver microsome dilution solution with a protein concentration of 0.625 mg/mL.
# Incubation of the samples: The stock solution of the respective compound was respectively diluted to 0.25 mM with an aqueous solution containing 70% acetonitrile, and used as a working solution, ready for use. 398 μL of the dilution solution of human liver microsomes or rat liver microsome were added to a 96-well incubation plate (N=2), respectively, and 2 μL of 0.25 mM working solution was added and mixed.
# Metabolic stability assay: 300 μL of pre-chilled stop solution was added to each well of a 96-well deep well plate and placed on ice as a stop plate. The 96 well incubation plate and NADPH regeneration system were placed in a 37° C. water bath box, shaken at 100 rpm and pre-incubated for 5 min. 80 μL of incubation solution was taken out from each well of the incubation plate and added to the stop plate, mixed, and replenished with 20 μL of NADPH regeneration system solution as a 0-min sample. 80 μL of NADPH regeneration system solution was added to each well of the incubation plate to start the reaction and start counting. […] Separately, 100 μL of the reaction solution was taken at 10, 30, and 90 min reaction, respectively, added to a stop plate, and vortexed for 3 minutes to terminate the reaction. The stop plate was centrifuged at 5000×g at 4° C. for 4 min. 100 μL of the supernatant was added to a 96-well plate to which 100 μL of distilled water was previously added, mixed, and analyzed by LC-MS/MS.
# Data analysis: The peak areas of the corresponding compound and internal standard were detected by LC-MS/MS system, and the ratio of the peak area of the compound to the internal standard was calculated.
# [5] = human liver microsomes, pH 7.4, 1 μM compound, 0.5 mg/mL protein
SMILES,IC50 (Human CYP17 [1]) [µM],IC50 (Human CYP17 [2]) [µM],IC50 [3] [µM],clearance compared to the non-deuterated compound ([4]; in words),half-life compared to the non-deuterated compound ([4]; in words),"half-life at 1 μM [4, 5] [min]","microsomal CLint at 1 μM [4, 5] [µL/min/mg]"
"[2H]C1=C(c2cccnc2)[C@@]2(C)CCC3C(CCC4=CC(=O)CC[C@@]43C)C2C1 (stereo partly drawn) [Example 13, (3β)-17-(3-pyridyl)-16-d-androst-4,16-dien-3-one]",< 0.02,< 0.01,< 0.01,,,,
"[2H]c1ccc(C2=CCC3C4CCC5=CC(=O)CC[C@]5(C)C4CC[C@]23C)cn1 (stereo partly drawn) [Example 12, (3β)-17-(3-pyridyl-6-d)androst-4,16-dien-3-one]",< 0.02,< 0.01,< 0.01,reduced,prolonged,3.4,408
